Five compounds from patent US6380262B1, “5-membered ring compounds” (Takara Shuzo Co., Ltd., priority 1998, dated 2002) can be followed below.

The subject of data set [1] is human influenza virus A1/FM/1/47 (ATCC VR-97). Briefly: therapeutic effect in mice infected with influenza virus. The format is in vivo, BALB/c mice. The following applies: control 4 out of 11 died. The procedure:
(24) Therapeutic effects of cyclopentenone and 2-hydroxy-4-glutathion-S-yl-2-cyclopenten-1-one were examined by conducting experiments in which mice were infected with influenza virus.
Each of 4 weeks old female BALB/c mice was intranasally infected with 1×10^4 FFU of human influenza virus A1/FM/1/47 (ATCC VR-97) which had been propagated in a hen's egg.
Immediately after the infection with virus, single dose of 1 mg/kg of cyclopentenone, or 3 mg/kg or 30 mg/kg of 2-hydroxy-4-glutathion-S-yl-2-cyclopenten-1-one was intraperitoneally administered to the mouse infected with influenza virus.
Phosphate buffered saline was administered to control mice.
As a result, 4 out of 11 mice in the control group died by day 16. On the other hand, the numbers of dead mice were only 1 out of 11, 1 out of 11 and 1 out of 10 for the groups administered with 1 mg/kg of cyclopentenone, 3 mg/kg of 2-hydroxy-4-glutathion-S-yl-2-cyclopenten-1-one and 30 mg/kg of 2-hydroxy-4-glutathion-S-yl-2-cyclopenten-1-one, respectively.

Data set [2] can be described thus: single oral administration to a rat (death). Type of data set: in vivo. The following applies: single dosage of 1000 mg/kg. The procedure:
No toxicity is observed when a physiologically effective amount of the compound of the present invention or an optical isomer thereof, or a salt thereof is administered.

The test system of data set [3] is HL-60 cells. Briefly: measurement of apoptotic cells using FACScan. The format is cell-based, human. The following applies: HL-60, 24 hours; actinomycin D 10 μl of 0.5 mg/ml in 5 ml. As for the experimental part:
(§1) (3) HL-60 cells were cultured at 37° C. in RPMI 1640 medium (Bio Whittaker) containing 10% fetal calf serum (JRH) which had been treated at 56° C. for 30 minutes and suspended in RPMI 1640 medium at a concentration of 2.5×10^5 cells/5 ml.
(§2) 10 μl of one of appropriate dilutions of the hexanoyl GM solutions in 20 mM Tris-HCl buffer or the di-t-butyl GD solution in 70% aqueous ethanol solution was added to 5 ml of the suspension. The mixtures were incubated at 37° C. for 24 hours in the presence of 5% CO2. 10 μl of aqueous actinomycin D (Sigma) solution (0.5 mg/ml), which is known as a reagent that induces apoptosis, was used in place of the sample and the mixture was incubated under the same conditions for confirmation.
(§3) Measurement of apoptotic cells using FACScan as described in Saibo Kogaku, Bessatsu (Cell Technology, Suppl.) Jikken Protocol Series: Apoptosis Jikken Protocol (Experimental Protocol Series: Experimental Protocols for Apoptosis) (Shujun-sha) pp. 129-130 and analysis of DNA fragmentation as described in Bio Manual UP Series: Saishin Apoptosis Jikken-ho (Bio Manual UP Series: Current Experimental Methods for Apoptosis) (Yodo-sha) pp. 61-63 were carried out using cells cultured in the same manner as that described above.

For data set [4], the system named is HL-60 cells. As to the kind of experiment: analysis of DNA fragmentation. Type of data set: cell-based, human. The following applies: HL-60, 24 hours; actinomycin D 10 μl of 0.5 mg/ml in 5 ml. The procedure: as §1, §2, §3
The nature of data set [5]: single oral administration to a mouse (death). The format is in vivo. The note with it: single dosage of 100 mg/kg.
Data set [6] deals with HL-60 (ATCC CCL-240) cells. Briefly: antiproliferation activity against tumor cells and apoptosis induction, MTT measurement system and optical microscope. The following applies: for induction of apoptosis (apoptosis corpuscles under an optical microscope): HL-60, 96-well plate culture. Type of data set: cell-based, human. The procedure: (1) 100 μl of a suspension containing HL-60 (ATCC CCL-240) cells in RPMI-1640 medium (Nippon Suisan Kaisha) containing 10% fetal calf serum (Gibco) which had been treated at 56° C. for 30 minutes at a concentration of 5×10^4 cells/ml was dispensed into each well of a 96-well microtiter plate. 10 μl of one of 2-fold serial dilutions with water of 8.3 mM hexanoyl GM solution in 25 mM Tris-HCl buffer was added to the well of the plate. The plate was incubated at 37° C. for 48 hours in the presence of 5% CO2. After the cells were examined under an optical microscope, 10 μl of 5 mg/ml 3-(4,5-dimethylthiazol-2-yl)-2,5-diphenyltetrazolium bromide (MTT; Sigma) solution in phosphate buffered saline was added to the well. The plate was incubated for additional 4 hours. 100 μl of 2-propanol containing 0.04 N HCl was added to the well, the mixture was stirred, and the absorbance at 590 nm was measured.
(2) 10 μl of one of 2-fold serial dilutions with 70% aqueous ethanol solution of 19 mM di-t-butyl GD solution in 70% aqueous ethanol solution was added to each well of a 96-well microtiter plate and air-dried. 100 μl of HL-60 suspension was then dispensed as described above. An apoptosis-inducing activity and an antiproliferation activity against tumor cells were examined using a measurement system using MTT.

In data set [7] the test system is HL-60 cells. Briefly: viability by Trypan Blue staining (Viability50). The format is cell-based. The note with it: Homo sapiens, read-out: Viability50 (concentration that results in a viability of 50%). The procedure:
as §1, §2
Furthermore, a portion of the cells cultured for 24 hours as described above was stained with 0.4% Trypan Blue and examined under an optical microscope. The number of viable cells which were not stained and the number of dead cells which were stained blue were counted. The concentration of each of the samples that results in a viability of 50% (Viability50 μM) was determined. As a result, Viability50 for hexanoyl GM was 9.22 μM and that for di-t-butyl GD was 46.3 μM.

Another data set addresses T1, topoisomerase II (Homo sapiens, UniProt P11388).
T1 construct: purchased TopoGEN
Briefly: topoisomerase II inhibition, pBR322 DNA relaxation on agarose gel. Type of data set: biochemical. As for the experimental part: (§4) (1) 2 μl of topoisomerase II (TopoGEN; 2 units/μl), 2 μl of 10-fold concentrated buffer [0.5 M Tris-HCl (pH 8.0), 1.2 M KCl, 0.1 M MgCl2, 5 mM adenosine triphosphate, 5 mM dithiothreitol], 2 μl of 0.1% bovine serum albumin (Takara Shuzo), 11 μl of distilled water and 2 μl of distilled water (control) or 2 μl of one solutions of hexanoyl GM adjusted to varying concentrations with water were mixed together. 1 μl of 0.25 μg/μl pBR322 DNA (Takara Shuzo) was added thereto. The resulting mixture was reacted at 37° C. After reacting for 30 minutes, 2 μl of an aqueous solution containing 1% sodium dodecyl sulfate, 50% glycerol and 0.02% Bromophenol Blue was added thereto to stop the reaction.
20 μl of the reaction mixture was applied to 1% agarose gel prepared using agarose L03 (Takara Shuzo) and TAE buffer [40 mM Tris, 5 mM sodium acetate, 1 mM ethylenediaminetetraacetic acid disodium salt; adjusted to pH 7.8 using acetic acid] and electrophoresed in TAE buffer. After electrophoresis, the gel was soaked in a 1 μg/ml aqueous ethidium bromide solution. The gel was exposed to ultraviolet rays to visualize the electophoretic pattern of DNA.

The next data set has as its target T2, topoisomerase I (Homo sapiens, UniProt P11387).
T2 construct: purchased TopoGEN
T2 sequence (P11387 1-765): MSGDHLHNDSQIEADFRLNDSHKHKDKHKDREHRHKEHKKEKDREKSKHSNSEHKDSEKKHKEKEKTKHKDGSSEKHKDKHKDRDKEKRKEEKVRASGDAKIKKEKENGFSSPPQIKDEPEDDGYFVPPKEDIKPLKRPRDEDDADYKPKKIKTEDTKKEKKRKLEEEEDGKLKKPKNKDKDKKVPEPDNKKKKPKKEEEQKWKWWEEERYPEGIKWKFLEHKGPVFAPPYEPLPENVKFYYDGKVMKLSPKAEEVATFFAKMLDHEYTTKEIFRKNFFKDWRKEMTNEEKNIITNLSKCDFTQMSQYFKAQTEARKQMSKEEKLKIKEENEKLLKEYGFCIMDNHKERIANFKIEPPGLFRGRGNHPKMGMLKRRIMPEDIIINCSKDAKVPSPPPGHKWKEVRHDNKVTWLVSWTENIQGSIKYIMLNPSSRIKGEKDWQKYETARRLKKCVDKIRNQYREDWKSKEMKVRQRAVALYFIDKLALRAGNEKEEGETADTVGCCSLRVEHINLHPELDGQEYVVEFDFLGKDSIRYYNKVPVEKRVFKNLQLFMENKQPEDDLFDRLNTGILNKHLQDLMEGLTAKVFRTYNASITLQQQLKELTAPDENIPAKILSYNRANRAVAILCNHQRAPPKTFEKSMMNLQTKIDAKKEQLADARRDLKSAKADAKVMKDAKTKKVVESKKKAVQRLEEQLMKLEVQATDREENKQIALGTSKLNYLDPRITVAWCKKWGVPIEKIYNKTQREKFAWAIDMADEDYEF
As to the kind of experiment: topoisomerase I inhibition, pBR322 DNA relaxation on agarose gel. Type of data set: biochemical. The following applies: topoisomerase I (TopoGEN), 37° C., 30 minutes. The procedure:
as §4
20 μl of the reaction mixture was applied to 1% agarose gel prepared using agarose L03 (Takara Shuzo) and TAE buffer [40 mM Tris, 5 mM sodium acetate, 1 mM ethylenediaminetetraacetic acid disodium salt; adjusted to pH 7.8 using acetic acid] and electrophoresed in TAE buffer. After electrophoresis, the gel was soaked in a 1 μg/ml aqueous ethidium bromide solution. […]
(2) The activity of inhibiting topoisomerase I of hexanoyl GM was determined as described in Example 3-(1) except that topoisomerase I (TopoGEN; 0.01 unit/μl) was used in place of topoisomerase II and a solution containing 100 mM Tris-HCl (pH 7.9), 10 mM EDTA, 1 mM spermidine and 50% glycerol was used as 10-fold concentrated buffer.

Read-outs that look alike come from different tables or passages of the source. Numbered stars: 1 amine (or outer) side, 2 acyl side, 3 side chain; on linkers, the order of the positions; unused ones are H or OH. Bridge positions count the residues as written; N and C are the ends. Square brackets hold non-standard residues; d marks the D form. Peptide text beside a SMILES is read from it. I, II: the chains in the order shown. Actinocin(9to1) = Cc1c2oc3c(C)ccc(C(=O)[*:1])c3nc-2c(C(=O)[*:2])c(N)c1=O; NMeV = CN[C@H](C(=O)O)C(C)C; Sar = CNCC(=O)O

T1 sequence (P11388 whole entry): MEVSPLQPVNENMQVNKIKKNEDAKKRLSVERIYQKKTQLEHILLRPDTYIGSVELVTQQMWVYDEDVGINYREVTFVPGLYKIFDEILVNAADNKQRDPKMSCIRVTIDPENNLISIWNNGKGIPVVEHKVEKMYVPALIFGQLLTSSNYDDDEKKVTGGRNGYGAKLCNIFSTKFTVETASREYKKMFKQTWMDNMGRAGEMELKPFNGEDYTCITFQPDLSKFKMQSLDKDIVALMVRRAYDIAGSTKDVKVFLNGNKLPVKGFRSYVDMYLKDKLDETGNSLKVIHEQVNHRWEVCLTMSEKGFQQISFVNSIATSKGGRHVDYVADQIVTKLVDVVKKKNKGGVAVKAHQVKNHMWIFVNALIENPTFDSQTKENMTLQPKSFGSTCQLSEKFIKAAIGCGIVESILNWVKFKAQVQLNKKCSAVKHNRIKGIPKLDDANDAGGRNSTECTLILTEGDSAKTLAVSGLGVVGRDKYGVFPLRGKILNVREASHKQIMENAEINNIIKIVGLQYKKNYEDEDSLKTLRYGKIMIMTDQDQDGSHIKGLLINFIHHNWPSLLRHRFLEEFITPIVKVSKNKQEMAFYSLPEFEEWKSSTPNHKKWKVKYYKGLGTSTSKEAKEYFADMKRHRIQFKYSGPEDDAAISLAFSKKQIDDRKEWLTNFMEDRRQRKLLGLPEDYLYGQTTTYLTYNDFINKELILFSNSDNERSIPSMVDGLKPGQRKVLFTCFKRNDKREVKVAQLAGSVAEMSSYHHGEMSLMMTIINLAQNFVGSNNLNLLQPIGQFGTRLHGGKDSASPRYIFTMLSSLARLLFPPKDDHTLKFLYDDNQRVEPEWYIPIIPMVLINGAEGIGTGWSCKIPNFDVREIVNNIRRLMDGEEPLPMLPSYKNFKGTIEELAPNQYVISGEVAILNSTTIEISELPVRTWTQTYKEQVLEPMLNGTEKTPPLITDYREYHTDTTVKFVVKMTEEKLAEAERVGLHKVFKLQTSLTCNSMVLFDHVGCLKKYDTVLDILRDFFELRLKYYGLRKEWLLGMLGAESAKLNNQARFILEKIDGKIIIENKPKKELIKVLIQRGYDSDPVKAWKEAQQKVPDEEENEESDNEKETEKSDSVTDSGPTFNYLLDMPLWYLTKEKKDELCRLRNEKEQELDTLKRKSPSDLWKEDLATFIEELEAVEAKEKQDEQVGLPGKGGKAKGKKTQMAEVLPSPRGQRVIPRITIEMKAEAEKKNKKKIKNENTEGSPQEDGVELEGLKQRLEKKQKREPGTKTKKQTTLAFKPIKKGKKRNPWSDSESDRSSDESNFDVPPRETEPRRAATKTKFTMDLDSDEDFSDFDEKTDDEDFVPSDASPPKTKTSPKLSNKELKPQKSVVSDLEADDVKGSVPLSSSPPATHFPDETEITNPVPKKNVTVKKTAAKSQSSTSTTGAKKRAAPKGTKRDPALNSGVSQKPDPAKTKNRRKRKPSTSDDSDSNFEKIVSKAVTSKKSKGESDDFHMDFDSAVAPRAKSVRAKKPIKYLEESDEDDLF

Take `N[C@@H](CCC(=O)N[C@@H](CSC1C=C(O)C(=O)C1)C(=O)NCC(=O)O)C(=O)O` (stereo partly drawn) [2-hydroxy-4-glutathion-S-yl-2-cyclopenten-1-one]: the “number of dead mice by day 16” value was 1 out of 11 in [1] (3 mg/kg single intraperitoneal dose immediately after infection) and 1 out of 10 in data set [1] (30 mg/kg single intraperitoneal dose immediately after infection). In data set [2], the “death after single oral administration” value is recorded as “no death was observed”.
`Cc1c2oc3c(C)ccc(C(=O)N[C@@H]4C(=O)N[C@H](C(C)C)C(=O)N5CCC[C@H]5C(=O)N(C)CC(=O)N(C)[C@@H](C(C)C)C(=O)O[C@@H]4C)c3nc-2c(C(=O)N[C@@H]2C(=O)N[C@H](C(C)C)C(=O)N3CCC[C@H]3C(=O)N(C)CC(=O)N(C)[C@@H](C(C)C)C(=O)O[C@@H]2C)c(N)c1=O` [actinomycin D] (I: T[dV]P[Sar][NMeV] / II: T[dV]P[Sar][NMeV]; ester I:1-I:C, II:1-II:C; linker I:N-II:N via Actinocin(9to1)): in the data set with HL-60 cells [3], the “apoptotic cells (FACScan)” value is “observed”. Also, the DNA fragmentation entry in the data set with HL-60 cells [4] is “observed”.
For `O=C1C=CC(O)C1O` (stereo not drawn) [cyclopentenone, 4,5-dihydroxy-2-cyclopenten-1-one], in data set [5], the “death after single oral administration” value is given as “No death was observed”. Moreover, in data set [1] (1 mg/kg single intraperitoneal dose immediately after infection), the “number of dead mice by day 16” value is 1 out of 11.
Turning to `CC(C)(C)OC1C(=O)CC(SC[C@H](NC(=O)CC[C@H](N)C(=O)O)C(=O)NCC(=O)O)C1OC(C)(C)C` (stereo partly drawn) [di-t-butyl GD, 2,3-di-t-butoxy-4-glutathion-S-yl-1-cyclopentanone], the “induction of apoptosis (apoptosis corpuscles under an optical microscope)” value in data set [6] was “apoptosis corpuscles were observed”. Further, in [6] (HL-60, MTT, 2-fold serial dilutions of 19 mM solution, air-dried in well), the “final concentration down to which an antiproliferation activity against tumor cells was clearly exhibited” value is at least 34 µM. For the same compound, in data set [2], the “death after single oral administration” value is given as “no death was observed”. Also, the IC50 in the data set with HL-60 cells [7] (HL-60, 24 h) was 46.3 µM.
In the case of `CCCCCC(=O)OC1=CC(SC[C@H](NC(=O)CC[C@H](N)C(=O)O)C(=O)NCC(=O)O)CC1=O` (stereo partly drawn) [hexanoyl GM, 2-hexanoyloxy-4-glutathion-S-yl-2-cyclopenten-1-one], at topoisomerase II, the “selectivity of inhibition, topoisomerase II as compared with topoisomerase I” value was “selective inhibitory activity on topoisomerase II”. The “concentration at which change of DNA from superhelical type to relaxed type was partially or completely inhibited” value at topoisomerase II (topoisomerase II (TopoGEN), pBR322 DNA, 37° C., 30 minutes) was at least 100 µM. In addition, the “induction of apoptosis (apoptosis corpuscles under an optical microscope)” value in data set [6] is “apoptosis corpuscles were observed”. Further, the “final concentration down to which an antiproliferation activity against tumor cells was clearly exhibited” value in data set [6] (HL-60, 48 hours, MTT, 2-fold serial dilutions of 8.3 mM solution) was at least 6.25 pm. For the same compound, the “death after single oral administration” value in data set [2] is listed as “no death was observed”. In addition, the “concentration at which change of DNA from superhelical type to relaxed type was partially inhibited” value on topoisomerase I was at least 1000 µM. For the same compound, the IC50 in the data set on HL-60 cells [7] (HL-60, 24 hours, 0.4% Trypan Blue) was determined as 9.22 µM.
